The target in assay [1] is T1, Oxysterols receptor LXR-alpha (Homo sapiens, UniProt Q13133).
T1 sequence (Q13133 whole entry): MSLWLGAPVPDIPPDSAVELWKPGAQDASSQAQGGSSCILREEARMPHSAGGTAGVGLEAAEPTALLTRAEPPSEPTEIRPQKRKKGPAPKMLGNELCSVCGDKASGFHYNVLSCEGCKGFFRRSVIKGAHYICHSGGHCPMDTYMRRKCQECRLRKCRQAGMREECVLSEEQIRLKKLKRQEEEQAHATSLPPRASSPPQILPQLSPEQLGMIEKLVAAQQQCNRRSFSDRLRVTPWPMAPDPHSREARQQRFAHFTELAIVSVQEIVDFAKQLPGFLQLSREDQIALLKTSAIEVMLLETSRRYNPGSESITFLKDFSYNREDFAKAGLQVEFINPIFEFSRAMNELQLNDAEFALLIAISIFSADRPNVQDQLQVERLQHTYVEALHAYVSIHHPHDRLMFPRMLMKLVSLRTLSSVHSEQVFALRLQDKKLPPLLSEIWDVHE
Description: Displacement of [3H]T0901317 from human LXRalpha ligand binding domain. (In general: Loss of bound radioactivity is the signal in a displacement assay; it reports binding, not function.)

Assay [2] concerns HepG2. Put plainly: Agonist activity at LXR in human HepG2 cells assessed as lipid accumulation relative to T0901317.
Assay [3] relates to THP-1. Put plainly: cells. Conditions: Homo sapiens.
In assay [4] the test system is HepG2. Put plainly: cells. The conditions noted are these: Homo sapiens, HepG2, 3 h.
In assay [5] the target is T2, Oxysterols receptor LXR-beta (Homo sapiens, UniProt P55055). Description: Displacement of [3H]T0901317 from human LXRbeta ligand binding domain.
T2 sequence (P55055 whole entry, the tested form may be a part): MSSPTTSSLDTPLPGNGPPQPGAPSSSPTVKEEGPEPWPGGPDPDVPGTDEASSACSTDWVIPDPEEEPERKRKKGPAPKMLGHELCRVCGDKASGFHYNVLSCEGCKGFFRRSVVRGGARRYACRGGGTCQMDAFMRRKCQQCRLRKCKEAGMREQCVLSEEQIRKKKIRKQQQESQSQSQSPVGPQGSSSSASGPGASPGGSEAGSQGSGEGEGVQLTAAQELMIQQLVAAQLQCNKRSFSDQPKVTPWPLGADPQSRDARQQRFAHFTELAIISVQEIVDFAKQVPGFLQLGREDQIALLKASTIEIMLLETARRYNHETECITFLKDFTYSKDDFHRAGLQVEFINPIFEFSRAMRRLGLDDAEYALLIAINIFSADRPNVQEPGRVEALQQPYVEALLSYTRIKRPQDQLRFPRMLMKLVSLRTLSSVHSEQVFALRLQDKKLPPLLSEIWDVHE
Assay [6] addresses T3, Oxysterols receptor LXR-alpha (Homo sapiens, UniProt Q13133).
Assay [7] deals with T3, Oxysterols receptor LXR-alpha. This is another data set of the same source.
Assay [8] has as its target T2, Oxysterols receptor LXR-beta.
The target is the same in assay [9]. This is another data set of the same source.

As for `Cc1nc2c(C(F)(F)F)cccc2nc1-c1ccc(-c2ccccc2S(C)(=O)=O)cc1`, the half-inhibitory concentration (IC50) in [1] was above 1 µM.
On to `Cc1nc2c(C(F)(F)F)cccc2nc1-c1ccc(-c2ccc(S(C)(=O)=O)cc2)cc1`, for which the IC50 in assay [1] was above 1 µM.
As to `CNS(=O)(=O)c1cccc(-c2ccc(-c3nc4cccc(C(F)(F)F)c4nc3C)cc2)c1`, the Efficacy in assay [2] was found to be 6%. The same compound registered an EC50 in assay [3] of 1.47 µM.
In assay [1], `Cc1nc2c(C(F)(F)F)cccc2nc1-c1cccc(-c2ccc(S(C)(=O)=O)cc2)c1` showed an IC50 above 1 µM.
As to `Cc1nc2c(Cl)cccc2nc1-c1ccc(-c2cccc(S(C)(=O)=O)c2)cc1`, the EC50 in assay [4] was determined as 0.38 µM; in assay [3], 0.29 µM. The Efficacy in [2] was found to be 18%.
Taken in the same sequence, the figures for `CCc1nc2c(C(F)(F)F)cccc2nc1-c1ccc(-c2cccc(S(C)(=O)=O)c2)cc1` were 0.35 µM, 0.9 µM and 32%.
Consider `CS(=O)(=O)c1cccc(-c2ccc(-c3cnc4c(C(F)(F)F)cccc4n3)cc2)c1`, for which the IC50 in [1] is above 1 µM.
The same measure, in the same setting: to `Cc1nc2c(C(F)(F)F)cccc2nc1-c1cccc(-c2cccc(S(C)(=O)=O)c2)c1` belongs above 1 µM.
For the compound `CS(=O)(=O)c1cc(Cl)cc(Oc2cccc(-c3c(C(N)=O)cnc4c(C(F)(F)F)cccc34)c2)c1`, in assay [5], the IC50 is 0.061 µM. In addition, the concentration giving a half-maximal response (EC50) in assay [4] was 3.18 µM; in [6], 5.1 µM; in assay [7], 10.9 µM; in assay [8], 0.46 µM; in [3], 1.89 µM; in assay [9] it was 1.7 µM. For the same compound, the Efficacy in assay [2] is 74%.
Take `CCS(=O)(=O)c1cccc(-c2ccc(-c3nc4cccc(C(F)(F)F)c4nc3C)cc2)c1`: the IC50 in assay [1] was above 1 µM.
On the same count and under the same terms, to `CNC(=O)c1cccc(-c2ccc(-c3nc4cccc(C(F)(F)F)c4nc3C)cc2)c1` belongs above 1 µM.

A word on the IC50: it is the concentration that inhibits the measured activity by half. The low end stands for greater potency, the high end for weaker potency. What is called EC50 is the concentration that produces a half-maximal response.

For the origin of these results see ChEMBL document CHEMBL1156230, “Identification of phenylsulfone-substituted quinoxaline (WYE-672) as a tissue selective liver X-receptor (LXR) agonist” (J Med Chem, 2010).
